Assay results published in paper PMC11207005 (Pharmaceuticals, 2024).

How the values were obtained:
[1] = Phase solubility study: solubility of pure ALB in distilled water; assay type: physicochemical; details: thermodynamic from solid, 25 °C
Procedure: (§1) Phase solubility tests were conducted in distilled water following the procedure outlined in the Higuchi and Connors technique. […] Samples were placed in the water bath (25 °C/2 days/50 rpm) to attain equilibrium. Samples of 3 mL were withdrawn and filtered through a 0.45 μm nylon membrane filter. The filtrate (1 mL) was diluted appropriately with methanol, stirred for one hour (200 rpm), and assayed at 340 nm. The concentrations used were 2, 4, 10, 15, and 20 mmol/L for both βCD and HPβCD.

[2] = Phase solubility study of ALB with βCD (stability constant); assay type: physicochemical; details: distilled water, 25 °C
Procedure: as §1

[3] = Phase solubility study of ALB with HPβCD (stability constant); assay type: physicochemical; details: distilled water, 25 °C
Procedure: as §1

[4] = Dissolution test, USP apparatus type II; assay type: physicochemical; details: pH 6.8 phosphate buffer, 37 °C, 100 rpm, powder
Procedure: In the following circumstances, the dissolution test was carried out on the prepared ALB capsules and the complex-containing ones. The dissolution medium was a USP type II (paddle type) and 900 mL of pH 6.8 phosphate buffer at 37 ± 1 °C with the rotation speed fixed at […]. At selected time points (10, 20, …, 80), 2 mL samples of dissolution medium were withdrawn and replaced with a fresh buffer. Times start from 0-time points for powder dissolution and end after 20 min (average time to dissolve the capsule shell).

[5] = Oral pharmacokinetic (bioavailability) study in rats, non-compartmental analysis; assay type: in vivo, Wistar rats
Procedure: The Shimadzu SCL-10A VP system control (Kyoto, Japan) has a mass detector (LCMS2010A) from Shimadzu Kylimatu, Japan. The mobile phase comprised acetonitrile–deionized water–formic acid (70: 30: 0.1%, v/v). Rosuvastatin was utilized as an internal standard. The injection volume was 10 µL; the flow rate was […]; the autosampler temperature was 5 °C; the column temperature was 25 °C; and the column was ACE (C18; 4.6 × […]) with particle size of 5.0 µm.
The samples were prepared for injection into the instrument as follows: Samples (including known/unknown spiked plasma and samples) were obtained from the deep freezer, followed by a period of room-temperature thaw. Later, a plasma pipet was performed on the samples after they were shaken to form a mixture. A total of 270 µL of blank plasma per 300 µL of spiked plasma were pipetted into the labeled test tubes, and 30 µL of serial solutions into blank plasma were added. Then, 50 µL of rosuvastatin (IS) working solutions were added. Then, the samples were vortexed for roughly 10 s. A total of 700 µL of acetonitrile (precipitation solutions) were added and vortexed again for 2.0 min, then centrifugated at 4000 rpm for roughly five min at room temperature. After that, 200 µL from the supernatant was transferred to the HPLC vials inserts. Finally, the vials were capped and transferred into the autosampler racks.
The study protocol was validated and approved by the Institutional Review Board (IRB) of Applied Science University (ASU) (Decision no. 6/2021–2022). The preclinical investigation was conducted at the Animal House of ASU as a combined project. A total of 12 Wistar rats were prepared for this study and divided into two groups, with each group containing 6 rats. The average weight of the animals was 200 g ± 15 g, aged four weeks, and they were all males.
The animals for the experiment were prepared by depriving them of food (for about twelve hours) apart from full access to water, and they were identified by a sign mark on the tail. After the dosing of ALB, samples were retrieved from the rat’s tail. After, the tail was warmed for half a minute via a hot pad before every sampling period. […] The samples were kept in heparinized Eppendorf tubes, centrifugated to obtain the plasma, frozen at −25 °C, and kept until the time of analysis.
The plasma level–time profile of ALB was obtained using Microsoft Excel. Two profiles, F1 in G1 and F2 in G2, were plotted. […] ANOVA was applied to detect significant parameter differences using a […].

[6] = cited from earlier work
[7] = cited from earlier work; remark: listed apart in the source
[8] = male, Wistar, rat, plasma, po, 15 mg/kg

solubility at 2 days [1]: 2 µM
solubility at 2 days ([1]; approximate): ~1 µg/mL
Ks (stability constant) [2]: 500 M⁻¹
Ks (stability constant) [3]: 1836 M⁻¹
T30 (amount of ALB released in 30 min) [4]: 18%
Plasma concentration of ALB at 72 h ([5]; Wistar rats, F1 and F2, LLOQ 15 ng/mL): below the LLOQ
AUC(0-inf) [5, 8]: 7280 ± 306 ng·h/mL
Cmax [5, 8]: 240 ± 26.9 ng/mL
Tmax [5, 8]: 7.33 ± 1.03 h
AUC(0-t) ([5]; male, Wistar, rat, plasma, po, 15 mg/kg, read-out: AUC0-48 (AUC-48)): 5950 ± 265 ng·h/mL
k el ([5]; male, Wistar, rat, plasma, po, 15 mg/kg, read-out: Kel (elimination rate constant) (converted)): 1.25e-05 s⁻¹
Compound: CCc1cc2c(cc1N1CCC(N3CCOCC3)CC1)C(C)(C)c1[nH]c3cc(C#N)ccc3c1C2=O [ALB, Alectinib]
log partition coefficient (log p) [6]: 5.2
Oral bioavailability [7]: around 37%
